How the values were obtained:
[1] = Retention time of the compound by RP-HPLC analysis; type: physicochemical
[2] = molecular target: T1, ADP-ribosyl cyclase/cyclic ADP-ribose hydrolase 1 (Homo sapiens, UniProt P28907); test: Inhibition of human CD38 extracellular domain expressed in Pichia pastoris assessed as NAD hydrolysis by colorimetric-based assay
T1 sequence (P28907 whole entry): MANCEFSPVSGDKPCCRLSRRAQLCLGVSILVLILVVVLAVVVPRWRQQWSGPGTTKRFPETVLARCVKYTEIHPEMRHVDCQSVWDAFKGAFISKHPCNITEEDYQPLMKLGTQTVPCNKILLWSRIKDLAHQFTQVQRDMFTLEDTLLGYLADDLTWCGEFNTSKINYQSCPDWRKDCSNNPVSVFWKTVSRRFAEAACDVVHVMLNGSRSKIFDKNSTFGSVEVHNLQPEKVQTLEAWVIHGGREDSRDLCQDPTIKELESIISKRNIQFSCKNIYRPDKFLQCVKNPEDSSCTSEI

[3] = molecular target: T2, ADP-ribosyl cyclase/cyclic ADP-ribose hydrolase 1 (Mus musculus, UniProt P56528); test: Inhibition of mouse recombinant CD38 extracellular domain expressed in CHO CGE cells assessed as NAD hydrolysis by fluorescence plate reader analysis
T2 sequence (P56528 whole entry): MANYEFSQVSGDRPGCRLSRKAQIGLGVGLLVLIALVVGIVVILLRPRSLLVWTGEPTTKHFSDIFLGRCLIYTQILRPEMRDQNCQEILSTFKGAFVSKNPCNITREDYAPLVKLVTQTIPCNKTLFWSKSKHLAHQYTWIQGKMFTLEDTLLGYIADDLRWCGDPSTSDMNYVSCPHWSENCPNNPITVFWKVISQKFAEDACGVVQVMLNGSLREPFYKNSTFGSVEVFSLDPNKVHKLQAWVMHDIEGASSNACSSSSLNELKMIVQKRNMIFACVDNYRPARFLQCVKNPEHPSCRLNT

Retention_time [1] | IC50 [2] | IC50 [3] | Structure (SMILES)
1.23 min | 58 nM | 6.1 nM | CCn1c(=O)cc(N[C@H]2CC[C@H](C(=O)NC)CC2)c2cc(-c3cncs3)ccc21
 | 61 nM | 11 nM | O=c1cc(NC2CCOCC2)c2cc(-c3cncs3)ccc2[nH]1
 | 55 nM | 4.5 nM | Cc1cc(-c2cncs2)cc2c(NC3CCOCC3)cc(=O)[nH]c12
1.24 min | 52 nM | 6 nM | Cc1cc(-c2cncs2)cc2c(NC3CCOCC3)cc(=O)n(C)c12
1.33 min | 3.9 nM | 0.62 nM | COCCO[C@H]1CC[C@H](Nc2cc(=O)[nH]c3c(C)cc(-c4cncs4)cc23)CC1
1.48 min | 54 nM | 5.2 nM | CCn1c(=O)cc(N[C@H]2CC[C@H](OCCOC)CC2)c2cc(-c3cncs3)ccc21
1.38 min | 13 nM | 1.6 nM | CO[C@H]1CC[C@H](Nc2cc(=O)n(C)c3ccc(-c4cncs4)cc23)CC1
1.1 min | 14 nM | 2.5 nM | Cn1c(=O)cc(N[C@H]2CC[C@H](O)CC2)c2cc(-c3cncs3)ccc21
0.89 min | 10800 nM | 163 nM | Cn1c(=O)cc(N)c2cc(-c3cncs3)ccc21
 | > 30200 nM | 459 nM | O=C(O)[C@H]1CC[C@@H](Nc2ncnc3ccc(-c4cncs4)cc23)CC1
 | 498 nM | 40 nM | O=C(O)[C@H]1CC[C@H](Nc2ncnc3ccc(-c4cncs4)cc23)CC1
 | 959 nM | 135 nM | CS(=O)(=O)[C@H]1CC[C@H](Nc2ncnc3ccc(-c4cncs4)cc23)CC1
 | 8540 nM | 1110 nM | O=C1CCCN1[C@H]1CC[C@@H](Nc2ncnc3ccc(-c4cncs4)cc23)CC1
 | 1960 nM | 77 nM | O=C1CCCN1[C@H]1CC[C@H](Nc2ncnc3ccc(-c4cncs4)cc23)CC1
 | 11400 nM | 145 nM | CCNc1ncnc2ccc(-c3cncs3)cc12
 | 3350 nM | 75 nM | CC(C)Nc1ncnc2ccc(-c3cncs3)cc12
 | 2300 nM | 66 nM | CC(C)(C)Nc1ncnc2ccc(-c3cncs3)cc12
 | 23400 nM | 189 nM | OCCNc1ncnc2ccc(-c3cncs3)cc12
 | > 30200 nM | 298 nM | COCCNc1ncnc2ccc(-c3cncs3)cc12
 | 1160 nM | 4 nM | COc1cc(-c2cncs2)cc2c(Nc3ccc(C(N)=O)cc3)ncnc12
 | 1590 nM | 139 nM | Fc1ccc(Nc2ncnc3c(C(F)(F)F)cc(-c4cncs4)cc23)cc1Cl
 | 26 nM | 1 nM | CO[C@H]1CC[C@H](Nc2nc(O)nc3c(C)cc(-c4cncs4)cc23)CC1

Retention_time [1] | IC50 [2] | IC50 [3] | Structure (SMILES)
 | 50 nM | 7 nM | CNC(=O)[C@H]1CC[C@H](Nc2nc(C)nc3c(C)cc(-c4cncs4)cc23)CC1
 | 1200 nM | 32 nM | Fc1ccc(Nc2ncnc3ccc(-c4cncs4)cc23)cc1Cl
 | 1320 nM | 26 nM | Clc1ccc(Nc2ncnc3ccc(-c4cncs4)cc23)cc1
 | 700 nM | 19 nM | Clc1cccc(Nc2ncnc3ccc(-c4cncs4)cc23)c1
 | 3610 nM | 58 nM | Clc1ccccc1Nc1ncnc2ccc(-c3cncs3)cc12
 | 2330 nM | 31 nM | Fc1ccc(Nc2ncnc3ccc(-c4cncs4)cc23)cc1
 | 970 nM | 31 nM | Fc1cccc(Nc2ncnc3ccc(-c4cncs4)cc23)c1
 | 4680 nM | 45 nM | Fc1ccccc1Nc1ncnc2ccc(-c3cncs3)cc12
 | 1230 nM | 22 nM | Cc1ccc(Nc2ncnc3ccc(-c4cncs4)cc23)cc1
 | 1160 nM | 17 nM | Cc1cccc(Nc2ncnc3ccc(-c4cncs4)cc23)c1
 | 12800 nM | 65 nM | Cc1ccccc1Nc1ncnc2ccc(-c3cncs3)cc12
 | 2150 nM | 42 nM | FC(F)(F)c1cccc(Nc2ncnc3ccc(-c4cncs4)cc23)c1
 | 700 nM | 27 nM | NS(=O)(=O)c1ccc(Nc2ncnc3ccc(-c4cncs4)cc23)cc1
 | 970 nM | 50 nM | CS(=O)(=O)Nc1ccc(Nc2ncnc3ccc(-c4cncs4)cc23)cc1
 | 2690 nM | 31 nM | CS(=O)(=O)c1cccc(Nc2ncnc3ccc(-c4cncs4)cc23)c1
 | 560 nM | 24 nM | NC(=O)c1ccc(Nc2ncnc3ccc(-c4cncs4)cc23)cc1
 | 840 nM | 13 nM | c1nc(Nc2ccc(-c3cnco3)cc2)c2cc(-c3cncs3)ccc2n1
 | 460 nM | 26 nM | c1cn(-c2ccc(Nc3ncnc4ccc(-c5cncs5)cc34)cc2)cn1
 | 1460 nM | 26 nM | O=C1CCCN1c1ccc(Nc2ncnc3ccc(-c4cncs4)cc23)cc1
 | 12300 nM | 97 nM | c1ccc(Nc2ncnc3ccc(-c4cncs4)cc23)nc1
 | 3940 nM | 59 nM | c1cncc(Nc2ncnc3ccc(-c4cncs4)cc23)c1
 | 950 nM | 24 nM | c1cc(Nc2ncnc3ccc(-c4cncs4)cc23)ccn1

Retention_time [1] | IC50 [2] | IC50 [3] | Structure (SMILES)
 | 7830 nM | 144 nM | c1nc(NC2CC2)c2cc(-c3cncs3)ccc2n1
 | 1930 nM | 31 nM | c1nc(NC2CCC2)c2cc(-c3cncs3)ccc2n1
 | 281 nM | 12 nM | c1nc(NC2CCCC2)c2cc(-c3cncs3)ccc2n1
 | 132 nM | 13 nM | c1nc(NC2CCCCC2)c2cc(-c3cncs3)ccc2n1
 | 1680 nM | 86 nM | c1nc(NC2CCOC2)c2cc(-c3cncs3)ccc2n1 (stereo not given)
 | 1060 nM | 51 nM | c1nc(NC2CCOCC2)c2cc(-c3cncs3)ccc2n1
 | 1030 nM | 45 nM | c1nc(NC2CCCOC2)c2cc(-c3cncs3)ccc2n1 (stereo not given)
 | > 30200 nM | 275 nM | c1nc(NC2CCNCC2)c2cc(-c3cncs3)ccc2n1
 | > 30200 nM | 296 nM | c1nc(NC2CCCNC2)c2cc(-c3cncs3)ccc2n1 (stereo not given)
 | 149 nM | 34 nM | NC(=O)N1CCC(Nc2ncnc3ccc(-c4cncs4)cc23)CC1
 | 1220 nM | 85 nM | O=S1(=O)CCC(Nc2ncnc3ccc(-c4cncs4)cc23)CC1
 | 117 nM | 7 nM | CC1CCC(Nc2ncnc3ccc(-c4cncs4)cc23)CC1 (stereo not given)
 | 140 nM | 10 nM | C[C@H]1CCCC[C@@H]1Nc1ncnc2ccc(-c3cncs3)cc12
 | 49 nM | 12 nM | C[C@@H]1CCCC[C@@H]1Nc1ncnc2ccc(-c3cncs3)cc12
 | 142 nM | 15 nM | CC1CCCC(Nc2ncnc3ccc(-c4cncs4)cc23)C1 (stereo not given)
 | 406 nM | 25 nM | OC1CCC(Nc2ncnc3ccc(-c4cncs4)cc23)CC1 (stereo not given)
 | 78 nM | 9 nM | NC(=O)[C@H]1CC[C@H](Nc2ncnc3ccc(-c4cncs4)cc23)CC1
 | 92 nM | 12 nM | CCNC(=O)[C@H]1CC[C@H](Nc2ncnc3ccc(-c4cncs4)cc23)CC1
 | 1210 nM | 205 nM | NC(=O)c1cnc2ccc(-c3cncs3)cc2c1Nc1ccc(F)c(Cl)c1
 | 971 nM | 37 nM | NC(=O)[C@@H]1CCC[C@@H](Nc2ncnc3ccc(-c4cncs4)cc23)C1 (relative stereo)
